Measured values as given in US10087178B2, “Substituted spiropyrido[1,2-a]pyrazine derivative and medicinal use thereof as HIV integrase inhibitor” (priority 2012, dated 2018).
Counter-ions that a name gives are not always drawn.

The compounds below were run on HIV-1 NL4-3 strain (assay: Evaluation of antiviral activity: acute infection system of MT-4 cell with HIV-1 NL4-3 strain). Conditions: Human immunodeficiency virus 1, NL43, MT4, 120 h, MT-4 cells infected with HIV-1 NL4-3 strain (MOI 0.05), cultured 5 days, Cell Titer-Glo; read-out: antiviral activity (EC50).
Type: cell-based

Point of comparison: `CCN1C[C@@]2(C[C@@H]2C(=O)O)n2cc(C(=O)NCc3ccc(F)cc3F)c(=O)c(O)c2C1=O` [Example T7, (1S,2S)-7′-(2,4-difluorobenzylcarbamoyl)-2′-ethyl-9′-hydroxy-1′,8′-dioxo-1′,2′,3′,8′-tetrahydrospiro[cyclopropane-1,4′-pyrido[1,2-a]pyrazine]-2-carboxylic acid hydrochloride], EC50 15 nM. Against it:
- CCOC[C@H]1C[C@@]12Cn1cc(C(=O)NCc3cccc(Cl)c3F)c(=O)c(O)c1C(=O)N2CC [Example T45, (1S,2S)-N-(3-chloro-2-fluorobenzyl)-2-(ethoxymethyl)-2′-ethyl-9′-hydroxy-1′,8′-dioxo-1′,2′,4′,8′-tetrahydrospiro[cyclopropane-1,3′-pyrido[1,2-a]pyrazine]-7′-carboxamide] — 3.4-fold lower, 4.4 nM
- CCN1C(=O)c2c(O)c(=O)c(C(=O)NCc3cccc(Cl)c3F)cn2C[C@]12C[C@@H](COC)C2 [Example S59, N-(3-chloro-2-fluorobenzyl)-2′-ethyl-9′-hydroxy-trans-3-(methoxymethyl)-1′,8′-dioxo-1′,2′,4′,8′-tetrahydrospiro[cyclobutane-1,3′-pyrido[1,2-a]pyrazine]-7′-carboxamide hydrochloride] — 3.8-fold lower, 4 nM
- COC[C@H]1C[C@]2(CN(C)C(=O)c3c(OC(=O)C(C)C)c(=O)c(C(=O)NCc4cccc(Cl)c4F)cn32)C1 [Example S68, 7′-(3-chloro-2-fluorobenzylcarbamoyl)-cis-3-(methoxymethyl)-2′-methyl-1′,8′-dioxo-1′,2′,3′,8′-tetrahydrospiro[cyclobutane-1,4′-pyrido[1,2-a]pyrazin]-9′-yl isobutyrate] — 21-fold lower, 0.7 nM
- CCN1C(=O)c2c(O)c(=O)c(C(=O)NCc3cccc(Cl)c3F)cn2C[C@]12C[C@@H](CO)C2 [Example S58, N-(3-chloro-2-fluorobenzyl)-2′-ethyl-9′-hydroxy-trans-3-(hydroxymethyl)-1′,8′-dioxo-1′,2′,4′,8′-tetrahydrospiro[cyclobutane-1,3′-pyrido[1,2-a]pyrazine]-7′-carboxamide hydrochloride] — 2.2-fold lower, 6.8 nM
- CCN1C[C@@]2(C[C@@H]2COC)n2cc(C(=O)NCc3ccc(F)cc3F)c(=O)c(O)c2C1=O [Example T2, (1S,2S)-N-(2,4-difluroobenzyl)-2′-ethyl-9′-hydroxy-2-(methoxymethyl)-1′,8′-dioxo-1′,2′,3′,8′-tetrahydrospiro[cyclopropane-1,4′-pyrido[1,2-a]pyrazine]-7′-carboxamide hydrochloride] — 3.6-fold lower, 4.2 nM

Same assay, conditions: Human immunodeficiency virus 1, NL43, MT4, 120 h, antiviral activity; MT-4 cells infected with HIV-1 NL4-3 (MOI 0.05), 5 days culture, Cell Titer-Glo luminescence; read-out: EC50

Point of comparison: `CC(C)N1C[C@]2(C[C@@H](OCc3ccccc3)C2)n2cc(C(=O)NCc3ccc(F)cc3F)c(=O)c(O)c2C1=O` [Example S1, trans-3-(benzyloxy)-N-(2,4-difluorobenzyl)-9′-hydroxy-2′-isopropyl-1′,8-dioxo-1′,2′,3′,8′-tetrahydrospiro[cyclobutane-1,4′-pyrido[1,2-a]pyrazine]-7′-carboxamide hydrochloride], EC50 7.7 nM. Against it:
- CCO[C@H]1C[C@@]2(CN(C(C)C)C(=O)c3c(O)c(=O)c(C(=O)NCc4ccc(F)cc4F)cn32)C1 [Example S7, N-(2,4-difluorobenzyl)- trans-3-ethoxy-9′-hydroxy-2′-isopropyl-1′,8′-dioxo-1′,2′,3′,8′-tetrahydrospiro[cyclobutane-1,4′-pyrido[1,2-a]pyrazine]-7′-carboxamide hydrochloride] — 2.1-fold lower, 3.7 nM
- CN1C[C@]2(C[C@@H](OCc3ccccc3)C2)n2cc(C(=O)NCc3ccc(F)cc3F)c(=O)c(O)c2C1=O [Example S9, trans-3-(benzyloxy)-N-(2,4-difluorobenzyl)-9′-hydroxy-2′-methyl-1′,8′-dioxo-1′,2′,3′,8′-tetrahydrospiro[cyclobutane-1,4′-pyrido[1,2-a]pyrazine]-7′-carboxamide hydrochloride] — within 1.5-fold, 5.2 nM
- CC(C)N1CC2(CC(O)C2)n2cc(C(=O)NCc3ccc(F)cc3F)c(=O)c(O)c2C1=O (single isomer, unassigned) [Example S3, N-(2,4-difluorobenzyl)- trans-3,9′-dihydroxy-2′-isopropyl-1′,8′-dioxo-1′,2′,3′,8′-tetrahydrospiro[cyclobutane-1,4′-pyrido[1,2-a]pyrazine]-7′-carboxamide hydrobromide] — within 1.5-fold, 11 nM
- CCN1C[C@]2(C[C@@H](O)C2)n2cc(C(=O)NCc3ccc(F)cc3F)c(=O)c(O)c2C1=O [Example S17, N-(2,4-difluorobenzyl)-2′-ethyl-trans-3,9′-dihydroxy-1′,8′-dioxo-1′,2′,3′,8′-tetrahydrospiro[cyclobutane-1,4′-pyrido[1,2-a]pyrazine]-7′-carboxamide hydrobromide] — 2.6-fold higher, 20 nM

Same assay, conditions: Human immunodeficiency virus 1, NL43, MT4, 120 h, read-out: antiviral activity (EC50), MT-4 cells infected with HIV-1 NL4-3 strain (MOI 0.05), cultured 5 days, Cell Titer-Glo

Point of comparison: `CC(C)N1C[C@]2(C[C@H]2CO)n2cc(C(=O)NCc3cccc(Cl)c3F)c(=O)c(O)c2C1=O` [Example T5, (1R,2R)-N-(3-chloro-2-fluorobenzyl)-9′-hydroxy-2-(hydroxymethyl)-2′-isopropyl-1′,8′-dioxo-1′,2′,3′,8′-tetrahydrospiro[cyclopropane-1,4′-pyrido[1,2-a]pyrazine]-7′-carboxamide hydrochloride], EC50 4 nM. Against it:
- CCN1C[C@]2(C[C@H]2COC)n2cc(C(=O)NCc3cccc(Cl)c3F)c(=O)c(O)c2C1=O [Example T20, (1R,2R)-N-(3-chloro-2-fluorobenzyl)-2′-ethyl-9′-hydroxy-2-(methoxymethyl)-1′,8′-dioxo-1′,2′,3′,8′-tetrahydrospiro[cyclopropane-1,4′-pyrido[1,2-a]pyrazine]-7′-carboxamide hydrochloride] — within 1.5-fold, 3.5 nM
- CCN1C(=O)c2c(O)c(=O)c(C(=O)NCc3cccc(Cl)c3F)cn2C[C@@]12C[C@@H]2CO [Example T44, (1S,2S)-N-(3-chloro-2-fluorobenzyl)-2′-ethyl-9′-hydroxy-2-(hydroxymethyl)-1′,8′-dioxo-1′,2′,4′,8′-tetrahydrospiro[cyclopropane-1,3′-pyrido[1,2-a]pyrazine]-7′-carboxamide hydrochloride] — within 1.5-fold, 5.1 nM
- COC[C@@H]1C[C@]12CN(C(C)C)C(=O)c1c(O)c(=O)c(C(=O)NCc3cccc(Cl)c3F)cn12 [Example T6, (1R,2R)-N-(3-chloro-2-fluorobenzyl)-9′-hydroxy-2′-isopropyl-2-(methoxymethyl)-1′,8′-dioxo-1′,2′,3′,8′-tetrahydrospiro[cyclopropane-1,4′-pyrido[1,2-a]pyrazine]-7′-carboxamide hydrochloride] — within 1.5-fold, 3.8 nM

Same assay, conditions: Human immunodeficiency virus 1, NL43, MT4, 120 h; read-out: antiviral activity (EC50)

Work on `COC[C@H]1C[C@]2(CN(C)C(=O)c3c(OC(=O)/C=C/C(=O)O)c(=O)c(C(=O)NCc4cccc(Cl)c4F)cn32)C1` [Example 39, (E)-4-[7′-(3-chloro-2-fluorobenzylcarbamoyl)-cis-3-(methoxymethyl)-2′-methyl-1′,8′-dioxo-1′,2′,3′,8′-tetrahydrospiro[cyclobutane-1,4′-pyrido[1,2-a]pyrazin]-9′-yloxy]-4-oxobut-2-enoic acid] yielded an EC50 of 1.4 nM.

Same assay, conditions: MT-4 cells infected with HIV-1 NL4-3 strain (MOI 0.05), cultured 5 days, Cell Titer-Glo; read-out: antiviral activity (EC50)

Work on `COC[C@H]1C[C@]2(CN(C)C(=O)c3c(O)c(=O)c(C(=O)NCc4cccc(Cl)c4F)cn32)C1` [Example 28, Monosodium 7′-(3-chloro-2-fluorobenzylcarbamoyl)-cis-3-(methoxymethyl)-2′-methyl-1′,8′-dioxo-1′,2′,3′,8′-tetrahydrospiro[cyclobutane-1,4′-pyrido[1,2-a]pyrazin]-9′-olate] yielded an EC50 of 2.2 nM.
